Data on twelve compounds can be found in patent US12226405B2, “Compounds and compositions for inhibiting the activity of HIF2-alpha and their methods of use” (Novartis AG, priority 2020, dated 2025).

For assay [1], the target named is HIF2α PAS-B domain (236-350, biotinylated on the N-terminus) (Homo sapiens (Human), UniProt Q99814).
Procedure: The assay buffer contained 50 mM Tris-HCl pH7 (Sigma), 20 mM NaCl (Fluka), 0.02% BSA (Sigma), 0.005% Triton X-100 (Pierce) and 1 mM DTT (Fluka). After a 30 min incubation period, 5 μL Streptavidin PVT SPA Beads (Perkin Elmer) at 1.2 mg/mL, diluted in the buffer, were added.
The subject of assay [2] is HIF2α-regulated expression of the endogenous target gene hEGLN3 in 786-O cells. In words: Cellular iScript assay for HIF2α (quantitative RT-PCR of hEGLN3). The assay is classed as cell-based, human. To be noted: Homo sapiens, 786-0, 48 hours incubation. On the procedure:
(§1) Stock solutions of compounds were prepared at a concentration of 10 mM in DMSO and stored at 4° C. Where necessary to afford a full dose-response curve, the stock solutions were pre-diluted in DMSO to 1,000-fold the desired reduced start concentration. On the day after cell seeding, eleven 2-fold serial dilutions of each compound were dispensed directly into the cell assay plates using either HP 300D non-contact Digital Dispenser (TECAN) or a ATS100 acoustic dispenser (EDC Biosystems).
Compound-mediated modulation of the HIF2α-regulated expression of the endogenous target gene hEGLN3 (OMIM: 606426), as well as beta-actin (OMIM: 102630) as a house-keeping control, was assess in 786-O cells (RRID CVCL_1051) using a quantitative RT-PCR approach. In short, 786-O cells were maintained in growth medium composed of DMEM (GIBCO #11995-065), 2 mM L-Glutamine (BioConcept #5-10K50-H), 1× Penicillin/Streptomycin (BioConcept #4-01F00-H), 10% fetal calf serum (Gibco #A31608-01), 1 mM Sodium pyruvate (BioConcept #5-60F00-H). Cells were seeded at 1,000 cells/20 μL/well into white-wall, clear-bottom 384-well plates (Greiner #781098) and incubated over night at 37° C. prior to addition of serial compound dilutions as described above. Following incubation for 48 hours at 37° C., medium supernatant was discarded and the plate blotted dry by inverting on a tissue. The same procedure was repeated following one wash with 20 μL phosphate-buffered saline. Following addition of 25 μL/well iScript sample preparation reagent (BioRad #170-8899) using a 16-channel Matrix pipette, the plate was incubated for 2 min at room temperature. 20 μL lysate supernatant was then removed and transferred to a new 384 well plate (Costar #3656) and diluted 1:3 by adding 5 μL of the lysate to 10 μL H2O using a Bravo liquid handler (Agilent). 2 μL of the diluted lysate was added to the 8 μL of a mastermix containing 5 μL iTaq Universal Probes One-step kit (BioRad #172-5141), 0.25 μL iScript reverse transcription supermix (BioRad #1708840), 0.25 μL 40×HEX-ZEN-labeled TaqMan probe for beta-actin (IDT #Hs.PT.39a.22214847: Probe 5′ HEX-TCA TCC ATG/ZEN/GTG AGC TGG CGG-3′ (SEQ ID NO: 2) Iowa Black FQ, Primer 1: ACA GAG CCT CGC CTT TG (SEQ ID NO: 3); Primer 2: CCT TGC ACA TGC CGG (SEQ ID NO: 4) AG), 0.25 μL, 40×FAM-ZEN-labeled TaqMan probe for hEGLN3 (IDT #Hs.PT.58.189348: Probe 5′ 6-FAM-TTT GGC TTC/ZEN/TGC CCT TTC TTC AGC-3′ (SEQ ID NO: 5) Iowa Black FQ, Primer 1: CACGGTCAGTCTTCAGTGAG (SEQ ID NO: 6); Primer 2: CGCAACCAGATATGCTATGACT (SEQ ID NO: 7)), 2.25 μL RNase-free water, prelaid in a 384 well plate (ABI #4309849) using a 16-channel Matrix pipette. The plate was sealed with a PCR-compatible optical film (MicroAmp, ABI #4360954) and centrifuged (1500 rpm, 5 min, +4° C.) to collect all reagents in the bottom of the well and to remove bubbles. The plate content was amplified on a 7900HT thermal cycler (ABI) using the following conditions: Step 1: 50° C. for 10 min, Step 2: 95° C. for 3 min, Step 3 (40×): 95° C. for 15 s, 60° C. for 1 min. ROX (reaction volume 10 μL) was used as a passive reference. Data were collected with manual adjustment of the Ct threshold (beta-actin: 0.046, hEGLN3: 0.06) and were analyzed using the 2^(−ΔΔCt) method. Thus, for each sample, the following values were calculated: 2^(−Ct)a for beta-actin, 2^(−Ct)e for EGLN3, and 2^(−ΔCt) calculated as (2^(−Ct)e/2^(−Ct)a). The mean 2^(−ΔCt) as well as the corresponding standard deviation was calculated for each sample. Taking the DMSO-treated sample as a reference, the 2^(−ΔΔCt) for each sample was calculated as follows: 2^(−ΔΔCt)=2^(−ΔCt)sample/(2^(−ΔCt)DMSO). After calculating differential expression as 2^(−ΔΔCt) for each sample, it was then expressed as a percentage (×100) to obtain a dose-response curve in % of DMSO control and IC50s were calculated using a four-parametric fit model.

For assay [3], the system named is HIF2α-dependent transcription in 786-O-HRE-Luc cells. Kind of assay: In vitro cellular hypoxia response element (HRE) reporter gene assay (RGA) for HIF2α. Particulars: Homo sapiens, 24 hours incubation. The assay is classed as cell-based, human. The procedure:
as §1
The ability of compounds to inhibit HIF2α- and HIF1α-dependent transcription was assessed in 786-O-HRE-Luc and RCC4-HRE-Luc cells, respectively. The putative unselective inhibition of firefly luciferase activity or expression was assessed in 786-O-UB6-Luc and RCC4-UB6-Luc cells, respectively. The reporter lines were generated as follows: 786-O (RRID: CVCL_1051) and RCC4 (RRID: CVCL_0498) clear cell renal carcinoma cell lines were obtained from ATCC and Celeste Simon (University of Pennsylvania), respectively. Either cell line was transduced with a lentiviral vector in which the expression of a PEST-destabilized version of firefly-luciferase is under the control of either a minimal promoter coupled to four copies of a minimal hypoxia response element (HRE) sequence (pLenti 4×HRE Luc PEST), or a promoter from the house-keeping UBC gene (pLenti UB6 Luc PEST). In short, for the construction of the pLenti 4×HRE Luc PEST vector, 4×HRE DNA oligonucleotides were synthesized, annealed and cloned into pGL4.27 plasmid vector (Promega) predigested with NheI and HindIII restriction enzymes. The sequence of the two DNA oligonucleotides was as follows: NheI 4×HRE HindIII FWD: […] (SEQ ID NO: 8); NheI 4×HRE HindIII REV […] (SEQ ID NO: 9). The 4×HRE Luc PEST fragment was then PCRed from this plasmid with restriction enzyme sites NheI and XhoI at the two ends, and inserted into pLenti6/BLOCK iT DEST (Thermo Fisher Scientific) predigested with NheI and XhoI restriction enzymes. For the construction of the pLenti UB6 Luc PEST vector, the Luc PEST sequence was PCRed from pGL4.27 (Promega) using EcoRV and XhoI restriction enzymes at the two ends, and inserted into pLenti6/UBC/V5/DEST (Thermo Fisher Scientific) predigested with the same enzymes. 786-O and RCC4 cells (300,000 per well of a 6 well plate) were infected in the presence of 10 μg/ml polybrene with lentivirus harvested two days after transfection of HEK293-FT (ThermoFisher Scientific #R70007) cells (80% confluent in a 100 cm^2 dish) with a mix of 1.5 ml OptiMEM (ThermoFisher Scientific #31985062) containing 3 μg of the desired plasmids and 9 μl of ViralPower Packaging mix (ThermoFisher Scientific #K497500), and 1.5 ml OptiMEM containing 36 μl Lipofectamine 2000 (ThermoFisher Scientific #11668019). Successfully infected cells were selected using blasticidin (Gibco #A11139-03) at a final concentration of 5 μg/ml. The resulting stable cell lines were named 786-O pLenti 4×HRE Luc PEST (short: 786-O-HRE-Luc), 786-O pLenti UB6 Luc PEST (short: 786-O-UB6-Luc), RCC4 pLenti 4×HRE Luc PEST (short: RCC4-HRE-Luc) and RCC4 pLenti UB6 Luc PEST (short: RCC4-UB6-Luc). All 4 cell lines were maintained in growth medium composed of DMEM (GIBCO #11995-065), 2 mM L-Glutamine (BioConcept #5-10K50-H), 10% fetal calf serum (Gibco #A31608-01), 1× Penicillin/Streptomycin (BioConcept #4-01F00-H), 1 mM Sodium pyruvate (BioConcept #5-60F00-H) and 5 μg/ml blasticidin (Gibco #A11139-03) at 37° C. in a humidified 5% CO2 incubator.
For the reporter gene assay, the individual cell lines were seeded at 2,500 cells/20 μL/well into white-wall, clear-bottom 384-well plates (Greiner #781098) and incubated over night at 37° C. prior to addition of serial compound dilutions as described above. […]

Sequence of HIF2α PAS-B domain (236-350, biotinylated on the N-terminus) (Q99814 236-350): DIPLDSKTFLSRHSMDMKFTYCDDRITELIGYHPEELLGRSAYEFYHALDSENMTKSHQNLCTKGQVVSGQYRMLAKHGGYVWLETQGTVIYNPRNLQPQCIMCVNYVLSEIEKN

As for `CSc1ccc2c(c1F)OCC[C@@]21CN2C=C(C(F)(F)F)C=C(OC(F)F)C2=N1` [Example 99, (S)-8′-(difluoromethoxy)-8-fluoro-7-(methylthio)-6′-(trifluoromethyl)-3′H-spiro[chromane-4,2′-imidazo[1,2-a]pyridine]], the 50% inhibitory concentration (IC50) in assay [1] was found to be 10 nM; in assay [2], 71 nM; in assay [3], 286 nM. Take `FC(F)(F)C1=CN2C[C@@]3(CCc4c3ccc(Br)c4Cl)N=C2C(Cl)=C1` [Example 71, (S)-5′-bromo-4′,8-dichloro-6-(trifluoromethyl)-2′,3′-dihydro-3H-spiro[imidazo[1,2-a]pyridine-2,1′-indene]]: the IC50 came to 20 nM in assay [1] and 181 nM in assay [2]. For `Fc1cccc2c1CCC[C@@]21CN2C=C(C(F)(F)F)C=C(Cl)C2=N1` [Example 79, (S)-8-chloro-5′-fluoro-6-(trifluoromethyl)-3′,4′-dihydro-2′H,3H-spiro[imidazo[1,2-a]pyridine-2,1′-naphthalene]], in that order: 5 nM and 70 nM. For `FC(F)OC1=CC(C(F)(F)F)=CN2C[C@@]3(CCc4cc(C(F)(F)F)ccc43)N=C12` [Example 6, (S)-8-(difluoromethoxy)-5′,6-bis(trifluoromethyl)-2′,3′-dihydro-3H-spiro[imidazo[1,2-a]pyridine-2,1′-indene]], the values for the IC50 in assay [2] and in assay [3] were 84 nM and 250 nM, respectively. For the compound `O=C1CC[C@@]2(CN3C=C(C(F)(F)F)C=C(OC(F)F)C3=N2)c2ccc(Br)cc21` [Example 90, (S)-6′-bromo-8-(difluoromethoxy)-6-(trifluoromethyl)-2′,3′-dihydro-3H,4′H-spiro[imidazo[1,2-a]pyridine-2,1′-naphthalen]-4′-one], the IC50 in assay [1] came out at 10 nM; in assay [2], 162 nM. The matching figures for `FC(F)OC1=CC(C(F)(F)F)=CN2C[C@@]3(CCc4cc(Br)ccc43)N=C12` [Example 72, (5)-5′-bromo-8-(difluoromethoxy)-6-(trifluoromethyl)-2′,3′-dihydro-3H-spiro[imidazo[1,2-a]pyridine-2,1′-indene]]: 7 nM and 84 nM. With `Fc1ccc2c(c1F)SCC[C@@]21CN2C=C(C(F)(F)F)C=C(OC(F)F)C2=N1` [Example 113, (S)-8-(difluoromethoxy)-7′,8′-difluoro-6-(trifluoromethyl)-3H-spiro[imidazo[1,2-a]pyridine-2,4′-thiochromane]], the IC50 in assay [1] was determined as 4 nM; in assay [2], 32 nM. The matching figures for `Fc1ccc2c(c1)CSC[C@@]21CN2C=C(C(F)(F)F)C=C(OC(F)F)C2=N1` [Example 116, (S)-8-(difluoromethoxy)-7′-fluoro-6-(trifluoromethyl)-3H-spiro[imidazo[1,2-a]pyridine-2,4′-isothiochromane]]: 6 nM and 46 nM. `FC(F)OC1=CC(C(F)(F)F)=CN2CC3(CCCc4c(C(F)(F)F)cccc43)N=C12` (racemic) [Example 87, rac-8-(difluoromethoxy)-5′,6-bis(trifluoromethyl)-3′,4′-dihydro-2′H,3H-spiro[imidazo[1,2-a]pyridine-2,1′-naphthalene]]: the IC50 in assay [2] worked out at 159 nM. That is a sub-micromolar value. `Fc1cccc2c1CSC[C@@]21CN2C=C(C(F)(F)F)C=C(OC(F)F)C2=N1` [Example 115, (S)-8-(difluoromethoxy)-8′-fluoro-6-(trifluoromethyl)-3H-spiro[imidazo[1,2-a]pyridine-2,4′-isothiochromane]]: the IC50 in assay [1] is at most 3 nM; in assay [2] it was 30 nM. The matching figures for `FC(F)OC1=CC(C(F)(F)F)=CN2C[C@@]3(CCc4ccccc43)N=C12` [Example 75, (S)-8-(difluoromethoxy)-6-(trifluoromethyl)-2′,3′-dihydro-3H-spiro[imidazo[1,2-a]pyridine-2,1′-indene]]: 76 nM and 183 nM. As to `N#CC1=CN2C[C@@]3(CCSc4c3ccc(Br)c4F)N=C2C(OC(F)F)=C1` [Example 110, (S)-7′-bromo-8-(difluoromethoxy)-8′-fluoro-3H-spiro[imidazo[1,2-a]pyridine-2,4′-thiochromane]-6-carbonitrile], the IC50 in assay [2] came out at 35 nM.
